# Legend:
# Human 5-HT4(d) = biological target: T1, Human 5-HT4(d) (Homo sapiens, UniProt Q13639); test: Agonist-induced cAMP elevation in human 5-HT4(d) transfected HEK293 cells; type: cell-based; settings: for Emax: HEK293, cAMP production normalized to the amount produced by 1,000 nM serotonin; for EC50: cAMP elevation (HTRF), human 5-HT4(d) transfected HEK293 cells
# T1 construct: expressed in transfected cells
# Protocol: Human 5-HT4(d) transfected HEK293 cells were established in-house. The cells were grown at 37° C. and 5% CO2 in DMEM supplemented with 10% FCS, 20 mM HEPES (pH 7.4), 200 μg/ml hygromycin B (Gibco), 100 units/ml penicillin and 100 μg/ml streptomycin.
# The cells were grown to 60-80% confluence. On the previous day before treatment with compounds dialyzed FCS (Gibco) was substituted for normal and the cells were incubated overnight.
# Compounds were prepared in 96-well plates (12.5 μl/well). The cells were harvested with PBS/1 mM EDTA, centrifuged and washed with PBS. At the beginning of the assay, cell pellet was resuspended in DMEM supplemented with 20 mM HEPES, 10 μM pargyline (Sigma) and 1 mM 3-isobutyl-1-methylxanthine (Sigma) at the concentration of 1.6×10^5 cells/ml and left for 15 min at room temperature. The reaction was initiated by addition of the cells into plates (12.5 μl/well). After incubation for 15 min at room temperature, 1% Triton X-100 was added to stop the reaction (25 μl/well) and the plates were left for 30 minutes at room temperature. Homogenous time-resolved fluorescence-based cAMP (Schering) detection was made according to the manufacturer's instruction. ARVOsx multilabel counter (Wallac) was used to measure HTRF (excitation 320 nm, emission 665 nm/620 nm, delay time 50 μs, window time 400 μs).
# Data was analyzed based on the ratio of fluorescence intensity of each well at 620 nm and 665 nm followed by cAMP quantification using cAMP standard curve. Enhancement of cAMP production elicited by each compound was normalized to the amount of cAMP produced by 1,000 nM serotonin (Sigma).
# T1 sequence (Q13639 1-360 isoform Q13639-3): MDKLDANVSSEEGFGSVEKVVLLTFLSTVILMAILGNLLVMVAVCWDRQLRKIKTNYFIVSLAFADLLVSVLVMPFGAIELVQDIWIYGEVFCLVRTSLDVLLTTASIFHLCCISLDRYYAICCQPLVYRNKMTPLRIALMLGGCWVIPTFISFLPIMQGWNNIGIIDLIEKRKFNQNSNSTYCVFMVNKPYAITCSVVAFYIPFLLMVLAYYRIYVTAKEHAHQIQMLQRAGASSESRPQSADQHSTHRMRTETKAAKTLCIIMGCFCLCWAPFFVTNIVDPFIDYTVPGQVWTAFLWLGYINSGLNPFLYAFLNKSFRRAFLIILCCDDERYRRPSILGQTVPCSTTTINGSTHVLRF
Compound,melting point,Emax (Human 5-HT4(d)),EC50 (Human 5-HT4(d))
"O=C(O)C1(CCN2CCC(COc3noc4cccc(OCC(F)(F)F)c34)CC2)CCOCC1 [Example 5, 4-{2-[4-({[4-(2,2,2-Trifluoroethoxy)-1,2-benzisoxazol-3-yl]oxy}methyl)piperidin-1-yl]ethyl}tetrahydro-2H-pyran-4-carboxylic acid]",220.5 °C,70%,2.7 nM
"CC(C)COc1cccc2onc(OCC3CCN(CC4(C(=O)O)CCCC4)CC3)c12 [Example 9, 1-[(4-{[(4-Isobutoxy-1,2-benzisoxazol-3-yl)oxy]methyl}piperidin-1-yl)methyl]cyclopentane-carboxylic acid]",156.3 °C,36%,2.9 nM
"CC(C)COc1cccc2onc(OCC3CCN(CC4(C(=O)O)CCOCC4)CC3)c12 [Example 10, 4-[(4-{[(4-Isobutoxy-1,2-benzisoxazol-3-yl)oxy]methyl}piperidin-1-yl)methyl]tetrahydro-2H-pyran-4-carboxylic acid]",153.4 °C,45%,3.1 nM
"CC(C)COc1cccc2onc(OCC3CCN(CC(C)(C)C(=O)O)CC3)c12 [Example 11, 3-(4-{[(4-Isobutoxy-1,2-benzisoxazol-3-yl)oxy]methyl}piperidin-1-yl)-2,2-dimethylpropanoic acid]",123.7 °C,29%,1.4 nM
"CC(C)COc1cccc2onc(OCC3CCN(CC4(C(=O)O)CCC4)CC3)c12 [Example 12, 1-[(4-{[(4-Isobutoxy-1,2-benzisoxazol-3-yl)oxy]methyl}piperidin-1-yl)methyl]cyclobutanecarboxylic acid]",168.8 °C,45%,2.3 nM
"CC(C)COc1cccc2onc(OCC3CCN(CCC4(C(=O)O)CCOCC4)CC3)c12 [Example 13, 4-[2-(4-{[(4-Isobutoxy-1,2-benzisoxazol-3-yl)oxy]methyl}piperidin-1-yl)ethyl]tetrahydro-2H-pyran-4-carboxylic acid]",213.8 °C,54%,2.7 nM
"CC(C)COc1cccc2onc(OCC3CCN(C[C@H]4CC[C@H](C(=O)O)CC4)CC3)c12 [Example 14, trans-4-[(4-{[(4-Isobutoxy-1,2-benzisoxazol-3-yl)oxy]methyl}piperidin-1-yl)methyl]cyclohexane-carboxylic acid]",103.3 °C,41%,2 nM
"CC(C)COc1cccc2onc(OCCC3CCN(CC4(C(=O)O)CCOCC4)CC3)c12 [Example 15, 4-[(4-{2-[(4-isobutoxy-1,2-benzisoxazol-3-yl)oxy]ethyl}piperidin-1-yl)methyl]tetrahydro-2H-pyran-4-carboxylic acid]",117.8 °C,32%,39 nM
"CC(C)COc1cccc2onc(NCC3CCN(CC4(C(=O)O)CCOCC4)CC3)c12 [Example 16, 4-[(4-{[(4-Isobutoxy-1,2-benzisoxazol-3-yl)amino]methyl}piperidin-1-yl)methyl]tetrahydro-2H-pyran-4-carboxylic acid]",178.2 °C,55%,1.6 nM
"O=C(O)C1(CN2CCC(COc3noc4cccc(OCC5CCC5)c34)CC2)CCOCC1 [Example 18, 4-{[4-({[4-(Cyclobutylmethoxy)-1,2-benzisoxazol-3-yl]oxy}methyl)piperidin-1-yl]methyl}tetrahydro-2H-pyran-4-carboxylic acid]",175.5 °C,52%,2 nM
"O=C(O)C1(CN2CCC(COc3noc4cccc(OCC5CCC5)c34)CC2)CCC1 [Example 20, 1-{[4-({[4-(Cyclobutylmethoxy)-1,2-benzisoxazol-3-yl]oxy}methyl)piperidin-1-yl]methyl}cyclo-butanecarboxylic acid]",176.9 °C,50%,0.24 nM
"O=C(O)C1(CN2CCC(COc3noc4cccc(OCC5CCCC5)c34)CC2)CCOCC1 [Example 22, 4-{[4-({[4-(Cyclopentylmethoxy)-1,2-benzisoxazol-3-yl]oxy}methyl)piperidin-1-yl]methyl}tetrahydro-2H-pyran-4-carboxylic acid]",185.6 °C,73%,4.4 nM
"O=C(O)C1(CN2CCC(COc3noc4cccc(OC5CCCC5)c34)CC2)CCOCC1 [Example 24, 4-{[4-({[4-(Cyclopentyloxy)-1,2-benzisoxazol-3-yl]oxy}methyl)piperidin-1-yl]methyl}tetrahydro-2H-pyran-4-carboxylic acid]",177.7 °C,52%,1.4 nM

# Next, values leading:
melting point,Emax (Human 5-HT4(d)),EC50 (Human 5-HT4(d)),Compound
164.9 °C,47%,0.51 nM,"O=C(O)C1(CN2CCC(COc3noc4cccc(OCC(F)(F)F)c34)CC2)CCC1 [Example 2, 1-{[4-({[4-(2,2,2-Trifluoroethoxy)-1,2-benzisoxazol-3-yl]oxy}methyl)piperidin-1-yl]methyl}-cyclobutanecarboxylic acid]"
129.2 °C,34%,0.69 nM,"CC(C)(CN1CCC(COc2noc3cccc(OCC(F)(F)F)c23)CC1)C(=O)O [Example 3, 2,2-Dimethyl-3-[4-({[4-(2,2,2-trifluoroethoxy)-1,2-benzisoxazol-3-yl]oxy}methyl)-piperidin-1-yl]propanoic acid]"
158 °C,77%,1.2 nM,"O=C(O)[C@H]1CC[C@H](CN2CCC(COc3noc4cccc(OCC(F)(F)F)c34)CC2)CC1 [Example 4, trans-4-{[4-({[4-(2,2,2-Trifluoroethoxy)-1,2-benzisoxazol-3-yl]oxy}methyl)-piperidin-1-yl]methyl}cyclohexanecarboxylic acid]"
227.1 °C,30%,20 nM,"O=C(O)C(F)(F)CN1CCC(COc2noc3cccc(OCC(F)(F)F)c23)CC1 [Example 6, 2,2-Difluoro-3-[4-({[4-(2,2,2-trifluoroethoxy)-1,2-benzisoxazol-3-yl]oxy}methyl)-piperidin-1-yl]propanoic acid]"
176.6 °C,35%,48 nM,"O=C(O)C1(CN2CCC(CCOc3noc4cccc(OCC(F)(F)F)c34)CC2)CCOCC1 [Example 7, 4-{[4-(2-{[4-(2,2,2-Trifluoroethoxy)-1,2-benzisoxazol-3-yl]oxy}ethyl)piperidin-1-yl]methyl}tetrahydro-2H-pyran-4-carboxylic acid]"
173.8 °C,41%,3.6 nM,"O=C(O)C1(CN2CCC(COc3noc4cccc(OCC5CCC5)c34)CC2)CCCC1 [Example 17, 1-{[4-({[4-(Cyclobutylmethoxy)-1,2-benzisoxazol-3-yl]oxy}methyl)piperidin-1-yl]methyl}cyclo-pentanecarboxylic acid]"
139.8 °C,45%,0.16 nM,"CC(C)(CN1CCC(COc2noc3cccc(OCC4CCC4)c23)CC1)C(=O)O [Example 19, 3-[4-({[4-(Cyclobutylmethoxy)-1,2-benzisoxazol-3-yl]oxy}methyl)piperidin-1-yl]-2,2-dimethyl-propanoic acid]"
223.2 °C,61%,5.3 nM,"O=C(O)C1(CCN2CCC(COc3noc4cccc(OCC5CCC5)c34)CC2)CCOCC1 [Example 21, 4-{2-[4-({[4-(cyclobutylmethoxy)-1,2-benzisoxazol-3-yl]oxy}methyl)piperidin-1-yl]ethyl}tetrahydro-2H-pyran-4-carboxylic acid]"
212.5 °C,77%,22 nM,"O=C(O)C1(CCN2CCC(COc3noc4cccc(OCC5CCCC5)c34)CC2)CCOCC1 [Example 23, 4-{2-[4-({[4-(Cyclopentylmethoxy)-1,2-benzisoxazol-3-yl]oxy}methyl)piperidin-1-yl]ethyl}tetrahydro-2H-pyran-4-carboxylic acid]"
172.9 °C,78%,6.6 nM,"O=C(O)C1(CN2CCC(COc3noc4cccc(OC5CCOCC5)c34)CC2)CCCC1 [Example 28, 1-{[4-({[4-(Tetrahydro-2H-pyran-4-yloxy)-1,2-benzisoxazol-3-yl]oxy}methyl)piperidin-1-yl]methyl}-cyclopentanecarboxylic acid]"
154.6 °C,70%,11 nM,"O=C(O)[C@H]1CC[C@H](CN2CCC(COc3noc4cccc(OC5CCOCC5)c34)CC2)CC1 [Example 29, trans-4-{[4-({[4-(Tetrahydro-2H-pyran-4-yloxy)-1,2-benzisoxazol-3-yl]oxy}methyl)piperidin-1-yl]methyl}cyclohexanecarboxylic acid]"

# From patent US8816090B2, “Benzisoxazole derivatives” (Pfizer Inc., priority 2005, dated 2014)
